pIC50: −log10 of the molar value. Blank lines part the entries; values can stand above or below the compound they belong to.
Assays:
Cytochrome P450 3A4 = Cytochrome P450 3A4 (Homo sapiens, UniProt P08684)
Description: Inhibition of human recombinant CYP3A4 by luceferin-based assay

[1] = target: T1, 5-hydroxytryptamine receptor 2C (Homo sapiens, UniProt P28335); assay: biochemical; type: cell-based, CHO-K1
T1 sequence (P28335 whole entry): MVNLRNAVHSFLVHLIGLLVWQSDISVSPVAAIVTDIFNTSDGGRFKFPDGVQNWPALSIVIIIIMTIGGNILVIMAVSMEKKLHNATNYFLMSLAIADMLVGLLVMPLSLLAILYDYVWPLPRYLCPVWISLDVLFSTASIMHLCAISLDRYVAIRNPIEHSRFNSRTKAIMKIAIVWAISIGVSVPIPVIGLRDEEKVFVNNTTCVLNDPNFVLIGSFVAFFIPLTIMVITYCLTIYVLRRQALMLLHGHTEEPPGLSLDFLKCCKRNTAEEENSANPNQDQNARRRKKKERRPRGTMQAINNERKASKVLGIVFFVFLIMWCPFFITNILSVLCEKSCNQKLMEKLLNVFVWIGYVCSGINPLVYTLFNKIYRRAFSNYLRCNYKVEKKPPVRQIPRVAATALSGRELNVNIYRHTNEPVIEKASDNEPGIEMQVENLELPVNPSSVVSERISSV
Description: Displacement of [3H]mesulergine from human recombinant 5-HT2C receptor expressed in CHO-K1 cells

Cytochrome P450 1A2 = target: T2, Cytochrome P450 1A2 (Homo sapiens, UniProt P05177)
T2 sequence (P05177 whole entry): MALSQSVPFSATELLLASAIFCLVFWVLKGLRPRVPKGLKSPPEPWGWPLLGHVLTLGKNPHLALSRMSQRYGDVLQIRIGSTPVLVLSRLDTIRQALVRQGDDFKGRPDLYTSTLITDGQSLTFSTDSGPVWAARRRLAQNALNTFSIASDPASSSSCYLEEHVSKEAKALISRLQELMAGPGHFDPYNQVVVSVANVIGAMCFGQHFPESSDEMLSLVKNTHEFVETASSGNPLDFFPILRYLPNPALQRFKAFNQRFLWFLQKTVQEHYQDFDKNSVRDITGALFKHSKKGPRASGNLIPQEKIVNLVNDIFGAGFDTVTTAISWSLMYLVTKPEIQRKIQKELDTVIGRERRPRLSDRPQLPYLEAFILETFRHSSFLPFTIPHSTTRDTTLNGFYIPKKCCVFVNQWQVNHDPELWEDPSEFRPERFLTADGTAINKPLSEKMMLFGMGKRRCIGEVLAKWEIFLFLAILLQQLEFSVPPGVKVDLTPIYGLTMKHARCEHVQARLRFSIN
Description: Inhibition of human recombinant CYP1A2 by luceferin-based assay

Cytochrome P450 2C9 = Cytochrome P450 2C9 (Homo sapiens, UniProt P11712)
Chain of Cytochrome P450 2C9 (P11712 whole entry): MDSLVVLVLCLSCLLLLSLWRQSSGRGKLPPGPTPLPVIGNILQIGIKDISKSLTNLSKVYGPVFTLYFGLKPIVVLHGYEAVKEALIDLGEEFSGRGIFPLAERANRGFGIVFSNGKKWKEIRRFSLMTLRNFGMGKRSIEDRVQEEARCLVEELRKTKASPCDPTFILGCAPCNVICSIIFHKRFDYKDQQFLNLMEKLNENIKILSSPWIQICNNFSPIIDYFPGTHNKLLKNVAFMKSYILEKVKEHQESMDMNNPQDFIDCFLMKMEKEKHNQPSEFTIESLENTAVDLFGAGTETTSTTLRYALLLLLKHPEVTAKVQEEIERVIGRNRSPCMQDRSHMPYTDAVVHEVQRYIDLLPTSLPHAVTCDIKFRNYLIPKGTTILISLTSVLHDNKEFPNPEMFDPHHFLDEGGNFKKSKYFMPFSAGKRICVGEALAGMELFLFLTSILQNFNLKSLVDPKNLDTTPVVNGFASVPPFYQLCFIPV
Description: Inhibition of human recombinant CYP2C9 by luceferin-based assay

Cytochrome P450 2D6 = Cytochrome P450 2D6 (Homo sapiens, UniProt P10635)
Chain of Cytochrome P450 2D6 (P10635 whole entry): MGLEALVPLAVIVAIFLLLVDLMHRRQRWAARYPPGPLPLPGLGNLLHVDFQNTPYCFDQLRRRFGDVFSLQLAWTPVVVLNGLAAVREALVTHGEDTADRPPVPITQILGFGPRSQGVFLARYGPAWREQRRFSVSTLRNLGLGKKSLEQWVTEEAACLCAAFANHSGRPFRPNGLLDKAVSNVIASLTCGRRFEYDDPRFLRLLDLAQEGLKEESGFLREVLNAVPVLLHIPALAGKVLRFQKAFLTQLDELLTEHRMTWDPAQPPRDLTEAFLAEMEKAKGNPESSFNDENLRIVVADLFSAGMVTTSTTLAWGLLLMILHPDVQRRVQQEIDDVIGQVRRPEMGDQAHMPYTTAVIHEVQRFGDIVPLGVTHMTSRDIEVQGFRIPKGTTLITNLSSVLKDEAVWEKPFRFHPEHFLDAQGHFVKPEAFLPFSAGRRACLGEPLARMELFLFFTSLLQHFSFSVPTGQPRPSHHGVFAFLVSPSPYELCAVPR
Description: Inhibition of human recombinant CYP2D6 by luceferin-based assay

in vitro = settings: mouse, ht-22
Description: Cytotoxicity against mouse HT22 cells after 48 hrs by MTT assay

D(2) dopamine receptor = D(2) dopamine receptor (Homo sapiens, UniProt P14416)
Chain of D(2) dopamine receptor (P14416 whole entry): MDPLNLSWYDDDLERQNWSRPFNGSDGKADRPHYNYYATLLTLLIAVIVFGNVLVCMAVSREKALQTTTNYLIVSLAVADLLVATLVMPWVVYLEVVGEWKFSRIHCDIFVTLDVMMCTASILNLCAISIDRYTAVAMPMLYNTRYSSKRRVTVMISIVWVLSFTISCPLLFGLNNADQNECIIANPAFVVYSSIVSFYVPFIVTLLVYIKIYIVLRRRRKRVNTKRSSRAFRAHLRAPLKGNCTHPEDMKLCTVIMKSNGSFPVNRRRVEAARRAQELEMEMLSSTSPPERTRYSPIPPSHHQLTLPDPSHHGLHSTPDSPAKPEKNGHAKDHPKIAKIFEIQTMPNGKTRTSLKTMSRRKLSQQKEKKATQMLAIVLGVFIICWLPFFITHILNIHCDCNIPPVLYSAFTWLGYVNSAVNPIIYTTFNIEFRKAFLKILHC
Description: Inhibition of dopamine D2 receptor by competition binding assay

[2] = target: 5-hydroxytryptamine receptor 6 (Homo sapiens, UniProt P50406)
Chain of 5-hydroxytryptamine receptor 6 (P50406 whole entry): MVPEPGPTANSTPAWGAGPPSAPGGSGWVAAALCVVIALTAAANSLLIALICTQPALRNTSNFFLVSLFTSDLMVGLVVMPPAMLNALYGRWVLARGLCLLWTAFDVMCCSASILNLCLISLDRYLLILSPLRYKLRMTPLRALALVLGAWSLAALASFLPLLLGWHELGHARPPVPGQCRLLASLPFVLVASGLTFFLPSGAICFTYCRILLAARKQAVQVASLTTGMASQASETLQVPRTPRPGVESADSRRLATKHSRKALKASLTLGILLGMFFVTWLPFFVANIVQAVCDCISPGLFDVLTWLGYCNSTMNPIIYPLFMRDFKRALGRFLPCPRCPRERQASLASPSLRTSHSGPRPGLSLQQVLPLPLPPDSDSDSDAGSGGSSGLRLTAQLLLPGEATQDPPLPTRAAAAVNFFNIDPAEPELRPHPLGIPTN
Description: Inhibition of 5HT6 receptor by competition binding assay

D(4) dopamine receptor = target: T3, D(4) dopamine receptor (Homo sapiens, UniProt P21917)
T3 sequence (P21917 whole entry): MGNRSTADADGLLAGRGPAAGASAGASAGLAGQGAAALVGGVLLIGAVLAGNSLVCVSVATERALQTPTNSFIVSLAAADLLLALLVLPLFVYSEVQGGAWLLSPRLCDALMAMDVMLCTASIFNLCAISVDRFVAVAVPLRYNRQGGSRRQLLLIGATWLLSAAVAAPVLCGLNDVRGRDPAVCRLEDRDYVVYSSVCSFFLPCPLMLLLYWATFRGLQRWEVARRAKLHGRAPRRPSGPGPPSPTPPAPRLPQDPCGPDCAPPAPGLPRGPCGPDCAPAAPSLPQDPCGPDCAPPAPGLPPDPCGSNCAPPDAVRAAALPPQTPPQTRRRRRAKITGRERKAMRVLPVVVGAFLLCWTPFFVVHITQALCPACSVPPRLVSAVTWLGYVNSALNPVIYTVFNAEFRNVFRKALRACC
Description: inhibition of dopamine D4 receptor by competition binding assay

D(3) dopamine receptor = D(3) dopamine receptor (Homo sapiens, UniProt P35462)
Chain of D(3) dopamine receptor (P35462 whole entry): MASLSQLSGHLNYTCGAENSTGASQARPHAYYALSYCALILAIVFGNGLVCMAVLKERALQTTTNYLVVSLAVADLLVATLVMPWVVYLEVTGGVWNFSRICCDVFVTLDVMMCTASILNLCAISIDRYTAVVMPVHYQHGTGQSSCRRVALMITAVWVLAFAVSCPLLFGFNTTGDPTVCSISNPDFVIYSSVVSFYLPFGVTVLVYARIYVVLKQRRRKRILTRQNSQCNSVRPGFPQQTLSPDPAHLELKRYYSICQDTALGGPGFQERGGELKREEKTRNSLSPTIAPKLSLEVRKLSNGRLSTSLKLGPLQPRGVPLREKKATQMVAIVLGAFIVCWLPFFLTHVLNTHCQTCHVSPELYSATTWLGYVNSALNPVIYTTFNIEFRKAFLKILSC
Description: Inhibition of dopamine D3 receptor by competition binding assay

[3] = target: 5-hydroxytryptamine receptor 7 (Homo sapiens, UniProt P34969)
Chain of 5-hydroxytryptamine receptor 7 (P34969 whole entry): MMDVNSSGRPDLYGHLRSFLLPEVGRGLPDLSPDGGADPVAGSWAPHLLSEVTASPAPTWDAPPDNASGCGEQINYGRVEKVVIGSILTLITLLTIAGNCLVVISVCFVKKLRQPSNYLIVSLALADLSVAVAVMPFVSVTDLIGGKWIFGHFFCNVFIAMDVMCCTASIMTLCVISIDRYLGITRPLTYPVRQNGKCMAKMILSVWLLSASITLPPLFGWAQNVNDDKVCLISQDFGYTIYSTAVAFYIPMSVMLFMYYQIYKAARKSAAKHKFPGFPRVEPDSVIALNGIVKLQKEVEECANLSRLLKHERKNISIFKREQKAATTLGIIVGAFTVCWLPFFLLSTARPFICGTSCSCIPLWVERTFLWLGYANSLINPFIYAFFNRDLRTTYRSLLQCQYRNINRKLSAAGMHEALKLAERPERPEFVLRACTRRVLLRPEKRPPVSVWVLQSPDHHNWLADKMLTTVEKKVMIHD
Description: Inhibition of 5HT7 receptor by competition binding assay

[4] = target: T4, 5-hydroxytryptamine receptor 1A (Homo sapiens, UniProt P08908)
T4 sequence (P08908 whole entry): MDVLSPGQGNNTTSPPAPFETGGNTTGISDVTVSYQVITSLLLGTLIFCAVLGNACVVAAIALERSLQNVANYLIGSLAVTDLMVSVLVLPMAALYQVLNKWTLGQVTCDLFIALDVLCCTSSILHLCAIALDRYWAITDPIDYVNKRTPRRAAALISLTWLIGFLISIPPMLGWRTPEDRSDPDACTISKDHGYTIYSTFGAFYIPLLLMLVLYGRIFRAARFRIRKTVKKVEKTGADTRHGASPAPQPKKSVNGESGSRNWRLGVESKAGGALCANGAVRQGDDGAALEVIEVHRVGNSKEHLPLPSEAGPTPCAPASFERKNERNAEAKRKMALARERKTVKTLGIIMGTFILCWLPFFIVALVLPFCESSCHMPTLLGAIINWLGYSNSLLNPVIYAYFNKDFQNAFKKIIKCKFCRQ
Description: Inhibition of 5HT1A receptor by competition binding assay

[5] = target: Voltage-gated inwardly rectifying potassium channel KCNH2 (Homo sapiens, UniProt Q12809)
Chain of Voltage-gated inwardly rectifying potassium channel KCNH2 (Q12809 whole entry): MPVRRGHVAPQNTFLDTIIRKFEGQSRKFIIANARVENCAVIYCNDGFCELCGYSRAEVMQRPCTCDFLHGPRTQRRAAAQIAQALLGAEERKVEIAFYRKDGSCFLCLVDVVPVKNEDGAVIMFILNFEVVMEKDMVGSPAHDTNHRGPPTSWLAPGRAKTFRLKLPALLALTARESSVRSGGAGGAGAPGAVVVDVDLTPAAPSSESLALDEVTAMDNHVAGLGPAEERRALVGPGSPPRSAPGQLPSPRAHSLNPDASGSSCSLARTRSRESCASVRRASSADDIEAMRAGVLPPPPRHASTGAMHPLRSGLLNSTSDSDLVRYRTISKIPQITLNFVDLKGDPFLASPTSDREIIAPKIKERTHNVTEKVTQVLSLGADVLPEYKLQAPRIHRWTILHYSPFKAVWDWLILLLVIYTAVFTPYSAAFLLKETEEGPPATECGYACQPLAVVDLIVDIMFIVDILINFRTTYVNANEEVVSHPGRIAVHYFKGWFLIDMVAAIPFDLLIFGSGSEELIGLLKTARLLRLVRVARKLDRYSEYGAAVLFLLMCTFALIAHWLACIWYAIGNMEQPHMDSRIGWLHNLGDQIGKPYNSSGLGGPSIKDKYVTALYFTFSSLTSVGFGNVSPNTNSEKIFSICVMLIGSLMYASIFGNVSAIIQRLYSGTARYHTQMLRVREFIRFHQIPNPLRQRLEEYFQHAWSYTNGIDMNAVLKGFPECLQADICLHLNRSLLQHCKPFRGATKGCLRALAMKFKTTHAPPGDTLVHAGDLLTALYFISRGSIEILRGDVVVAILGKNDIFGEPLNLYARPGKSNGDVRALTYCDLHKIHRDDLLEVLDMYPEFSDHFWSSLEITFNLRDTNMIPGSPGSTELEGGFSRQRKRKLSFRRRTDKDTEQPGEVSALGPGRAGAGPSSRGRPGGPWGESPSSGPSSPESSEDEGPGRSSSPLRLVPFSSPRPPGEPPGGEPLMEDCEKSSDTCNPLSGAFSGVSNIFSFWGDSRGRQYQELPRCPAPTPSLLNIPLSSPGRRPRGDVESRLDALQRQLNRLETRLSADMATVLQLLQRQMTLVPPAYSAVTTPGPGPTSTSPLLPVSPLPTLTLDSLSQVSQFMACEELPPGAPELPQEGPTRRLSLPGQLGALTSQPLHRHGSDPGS
Description: Displacement of [3H]astemizole from human ERG expressed in HEK293 cells

Chain of Cytochrome P450 3A4 (P08684 whole entry): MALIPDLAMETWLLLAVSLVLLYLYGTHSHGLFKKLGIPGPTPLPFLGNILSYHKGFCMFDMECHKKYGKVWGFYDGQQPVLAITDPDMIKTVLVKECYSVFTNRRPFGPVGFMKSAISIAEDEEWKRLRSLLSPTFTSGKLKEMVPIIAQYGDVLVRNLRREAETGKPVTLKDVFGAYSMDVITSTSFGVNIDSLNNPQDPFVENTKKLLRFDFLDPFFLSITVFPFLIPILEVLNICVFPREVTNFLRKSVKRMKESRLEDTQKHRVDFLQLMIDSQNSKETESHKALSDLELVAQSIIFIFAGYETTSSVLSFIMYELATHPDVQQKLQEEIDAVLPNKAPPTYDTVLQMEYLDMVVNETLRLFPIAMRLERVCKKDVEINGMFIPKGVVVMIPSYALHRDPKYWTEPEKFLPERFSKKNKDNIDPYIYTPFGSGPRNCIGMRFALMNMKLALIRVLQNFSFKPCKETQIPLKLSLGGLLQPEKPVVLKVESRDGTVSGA

pIC50 (Cytochrome P450 3A4): < 4.70
pIC50 [1]: 5.82
pIC50 (Cytochrome P450 1A2): < 4.70
pIC50 (Cytochrome P450 2C9): 5.54
pIC50 (Cytochrome P450 2D6): 5.27
Compound: Cc1c(Cl)cccc1N1CCN(CCCNC(=O)c2nc(-c3ccccc3)n(-c3ccccc3)c2C)CC1
CC50 at 48 h (in vitro): 23600 nM

pIC50 (D(2) dopamine receptor): 6.04
pIC50 [2]: 5.77
pIC50 (D(4) dopamine receptor): 5.40
pIC50 (D(3) dopamine receptor): 5.66
pIC50 [3]: 8.17
pIC50 [4]: 8.41
Compound: Cc1nc(C(=O)NCCN2CCN(c3cccc(Cl)c3Cl)CC2)c(C)n1-c1ccccc1
pIC50 [5]: < 5.00

pIC50 (D(2) dopamine receptor): 5.86
pIC50 [2]: 6.87
pIC50 (D(4) dopamine receptor): < 5.00
pIC50 (D(3) dopamine receptor): 6.31
pIC50 [3]: 7.96
pIC50 [4]: 8.31
Compound: Cc1nc(C(=O)NCCCN2CCN(c3cccc(Cl)c3Cl)CC2)c(C)n1-c1ccccc1

pIC50 [1]: 6.22
Compound: CCCc1nc(C(=O)NCCCN2CCN(c3cccc(Cl)c3C)CC2)c(C)n1-c1ccccc1

pIC50 [1]: 7.19
Compound: COc1ccc(-n2c(-c3ccccc3)nc(C(=O)NCCCN3CCN(c4cccc(Cl)c4Cl)CC3)c2C)cc1

pIC50 [1]: 6.23
Compound: CCCc1nc(C(=O)NCC(O)CN2CCN(c3cccc(C)c3C)CC2)c(C)n1-c1ccc2c(c1)OCCO2 (configuration not stated)

pIC50 [1]: 6.00
Compound: CCCc1nc(C(=O)NCC(O)CN2CCN(c3cccc(C)c3C)CC2)c(C)n1-c1ccc(F)cc1 (configuration not stated)

pIC50 [1]: 6.63
Compound: Cc1cccc(N2CCN(CCCNC(=O)c3nc(C)n(-c4ccc(Cl)cc4)c3C)CC2)c1C

pIC50 [1]: 7.19
Compound: Cc1c(C(=O)NCC(O)CN2CCN(c3cccc(Cl)c3Cl)CC2)nc(-c2ccccc2)n1-c1ccc(F)cc1 (configuration not stated)

pIC50 [1]: 6.73
Compound: Cc1cccc(N2CCN(CC(O)CNC(=O)c3nc(-c4ccccc4)n(-c4ccc(F)cc4)c3C)CC2)c1C (configuration not stated)

pIC50 [1]: 6.95
Compound: Cc1c(Cl)cccc1N1CCN(CCCNC(=O)c2nc(C)n(-c3ccc(F)cc3)c2C)CC1

pIC50 [1]: 5.36
Compound: Cc1c(Cl)cccc1N1CCN(CCCNC(=O)c2nc(C)n(C3CCCC3)c2C)CC1

pIC50 [1]: 6.18
Compound: CCCc1nc(C(=O)NCC(O)CN2CCN(c3cccc(C)c3C)CC2)c(C)n1-c1ccc(Cl)cc1 (configuration not stated)

pIC50 [1]: 6.44
Compound: CCCc1nc(C(=O)NCCCN2CCN(c3cccc(Cl)c3C)CC2)cn1-c1ccc(Cl)cc1

pIC50 [1]: 6.73
Compound: Cc1c(C(=O)NCCCN2CCN(c3cccc(Cl)c3Cl)CC2)nc(-c2ccccc2)n1-c1ccccc1F

pIC50 (Cytochrome P450 3A4): < 4.70
pIC50 [1]: 5.86
pIC50 (Cytochrome P450 1A2): 4.82
pIC50 (Cytochrome P450 2C9): 5.48
pIC50 (Cytochrome P450 2D6): 5.32
Compound: Cc1c(Cl)cccc1N1CCN(CCCNC(=O)c2nc(-c3ccccc3)n(-c3ccccc3)c2Cn2cncn2)CC1
CC50 at 48 h (in vitro): 19100 nM

pIC50 [1]: 6.71
Compound: Cc1cccc(N2CCN(CCCNC(=O)c3nc(-c4ccccc4)n(-c4ccccc4)c3C)CC2)c1C

pIC50 [1]: 6.98
Compound: COc1ccc(-n2cc(C(=O)NCCCN3CCN(c4cccc(C)c4C)CC3)nc2-c2ccccc2)cc1

pIC50 [1]: 6.55
Compound: CCCc1nc(C(=O)NCCCN2CCN(c3cccc(C)c3C)CC2)c(C)n1-c1ccccc1OC

pIC50 (Cytochrome P450 3A4): < 4.70
pIC50 [1]: 5.40
pIC50 (Cytochrome P450 1A2): < 4.70
pIC50 (Cytochrome P450 2C9): 5.36
pIC50 (Cytochrome P450 2D6): 4.75
Compound: Cc1cccc(N2CCN(CCCNC(=O)c3nc(C)n(-c4ccc5c(c4)OCCO5)c3C)CC2)c1C
pIC50 [5]: 5.06
CC50 at 48 h (in vitro): 19300 nM
